Assay results as given in ChEMBL document CHEMBL5291721, “A preclinical secondary pharmacology resource illuminates target-adverse drug reaction associations of marketed drugs” (Nat Commun, 2023).

Target: T1, Muscarinic acetylcholine receptor M1 (Homo sapiens, UniProt P11229)
T1 sequence (P11229 whole entry): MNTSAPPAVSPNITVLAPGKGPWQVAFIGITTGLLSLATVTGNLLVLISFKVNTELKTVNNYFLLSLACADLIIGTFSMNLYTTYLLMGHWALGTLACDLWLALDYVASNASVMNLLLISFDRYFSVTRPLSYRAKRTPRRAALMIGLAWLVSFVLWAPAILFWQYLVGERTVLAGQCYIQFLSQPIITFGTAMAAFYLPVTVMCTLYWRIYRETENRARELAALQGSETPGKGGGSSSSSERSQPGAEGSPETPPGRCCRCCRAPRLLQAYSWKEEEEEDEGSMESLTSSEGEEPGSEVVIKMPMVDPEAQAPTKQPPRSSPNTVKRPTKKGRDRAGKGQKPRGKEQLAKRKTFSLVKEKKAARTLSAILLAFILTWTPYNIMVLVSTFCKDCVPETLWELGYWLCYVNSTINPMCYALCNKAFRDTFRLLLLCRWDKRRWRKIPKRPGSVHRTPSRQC
Format: functional, cell-based
Further: assay procedure not described here.

AC50: 26 µM
Compound: CC(C[N+](C)(C)C)OC(N)=O (stereo unspecified) [BETHANECHOL]
